Series [1] has as its target (Homo sapiens, UniProt P06756+P18084). In words: Competitive binding ELISA with purified integrin, αvβ4 (so in the source). Here is the method: (§1) Small aliquots (50 mg, ˜150,000 beads) were incubated with a mixture of red fluorescent DX3 ITGβ6 mCherry (αvβ6-positive) and green fluorescent DX3 EmGFP (αvβ6-negative) cells for 3 hours and evaluated under a fluorescent microscope. Beads that were covered only by red (i.e. αvβ6-positive) cells were isolated; these beads were subsequently characterized by Edman sequencing. Following synthesis of the identified peptides, competitive binding ELISA was performed with purified integrin to evaluate binding specificities for the target αvβ6 integrin as well as closely related αv-integrins.
(§2) Anti-αv capture antibody P2W7 (5 μg/mL, Novus Biologicals) was coated onto Nunc MaxiSorp 96-well plates, followed by blocking with BSA overnight at 4° C. All wells were washed 3 times with PBS, followed by plating of purified integrin (3 μg/mL) and incubating at room temperature in a humid chamber for 1 hour. Peptide solutions, titrated (1 μM-1 pM for αvβ6 integrin and 100 μM-100 pM for αvβ3 integrin) and mixed with biotinylated natural ligand, were added to the integrin-coated wells in triplicate. After incubating for an hour at room temperature, the plate was washed 3 times with wash buffer. Captured biotinylated natural ligand was detected with ExtrAvidin-HRP and developed with TMB substrate. Half-maximal inhibitory concentration (IC50) of peptides was determined fitting to sigmoidal dose-response model in GraphPad Prism 6.0 (FIG. 5A).

The target in series [2] is αvβ1 (Homo sapiens, UniProt P05556+P06756). In words: Competitive binding ELISA with purified integrin, αvβ1. Here is the method: as §1, with “As described further below, a 9-mer XXDLXXLXK(FB) (SEQ ID NO: 23) peptide library was assembled on TentaGel resin (1 g, ˜3,000,000 beads) using standard Fmoc chemistry. Small” for “Small”
(§3) Anti-αv capture antibody P2W7 (5 μg/mL, Novus Biologicals) was coated onto Nunc MaxiSorp 96-well plates, followed by blocking with BSA overnight at 4° C. All wells were washed 3 times with PBS, followed by plating of purified integrin (3 μg/mL) and incubating at room temperature in a humid chamber for 1 hour. […] Captured biotinylated natural ligand was detected with ExtrAvidin-HRP and developed with TMB substrate. Half-maximal inhibitory concentration (IC50) of peptides was determined fitting to sigmoidal dose-response model in GraphPad Prism 6.0 (FIG. 5A). […]
(An ELISA detects its analyte on a solid surface through an enzyme-linked reagent.)

A short description of series [3]: Log P of radiolabeled peptide. Type of series: physicochemical. The following applies: peptide radiolabeled with [18F]fluorobenzoic acid. Here is the method:
(§4) Based on selectivity profiles of all peptides, the ST1-62 peptide was selected to move forward for radiolabeling with [^18F]fluorobenzoic acid for log P, serum stability, and cell binding studies. Log P=−1.09±0.02 (FIG. 6B). Serum stability of the peptide was determined at 1 hour after incubating with mouse serum at 37° C. (FIG. 7A).

Series [4] in a line: Serum stability in mouse serum, HPLC analysis. The settings on record: [18F]-radiolabeled peptide, 37° C., an hour. Type of series: in vitro ADME. Here is the method:
Serum stability study analysis of Peptide 1 (ST1-62) (SEQ ID NO:2) was performed by first incubating the radiolabeled peptide ([^18F]; 25 μCi) with commercially available mouse serum at 37° C. for an hour. The radiotracer was removed from serum by precipitating out the protein with cold EtOH and then injected into a HPLC for analysis.
as §4

Series [5] relates to DX3puroβ6 (αvβ6-positive) and DX3 puro (αvβ6-negative) cells. In words: Flow cytometry binding to DX3puroβ6 and DX3 puro cells. Type of series: cell-based, human. The settings on record: peptide concentrations of 10 μM and 100 μM. The source says:
FIGS. 8A and 8B show binding of a peptide labeled with FAM-X ([…]-FAM-X; SEQ ID NO:15) to DX3puroβ6 and DX3 puro cells. […] 150,000 cells were used in each experiment. […] These studies used 75,000, 150,000, or 300,000 cells per experiment. The control experiment used 300,000 unstained cells.
Flow cytometry was used to assay the binding of a peptide labeled with FAM-X ([…]-FAM-X; SEQ ID NO:15) to DX3puroβ6 and DX3 puro cells.
Background: In flow cytometry, cells or beads pass a laser one at a time.

In series [6] the target is αvβ6 integrin (Homo sapiens, UniProt P06756+P18564). In words: Competitive binding ELISA with purified integrin, αvβ6. Here is the method: as §1
as §2, with “After incubating for an hour at room temperature, the plate was washed 3 times with wash buffer.” left out

Series [7] deals with αvβ3 integrin (Homo sapiens, UniProt P05106+P06756). In words: Competitive binding ELISA with purified integrin, αvβ3. Here is the method: as §1, with “As described further below, a 9-mer XXDLXXLXK(FB) (SEQ ID NO: 23) peptide library was assembled on TentaGel resin (1 g, ˜3,000,000 beads) using standard Fmoc chemistry. Small” for “Small”
as §3

We go through 6 compounds from patent US12023391B2, “Alpha(v)beta(6) integrin-binding peptides and methods of use thereof” (The Regents of the University of California, priority 2016, dated 2024).

Where two headings read alike, the source gives them in different places. Residues, ends and D or L forms follow the SMILES beside them. *: point of attachment. Benzoyl(4-F) = O=C(c1ccc(F)cc1)*

Take `CC(C)C[C@H](NC(=O)[C@H](Cc1ccc(O)cc1)NC(=O)[C@@H](NC(=O)[C@H](CC(C)C)NC(=O)[C@H](CC(=O)O)NC(=O)CNC(=O)[C@@H](N)C(C)C)[C@@H](C)O)C(=O)N[C@@H](CCCCN)C(=O)N[C@@H](CCCCNC(=O)c1ccc(F)cc1)C(N)=O` [ST1-62]: the concentration for half-maximal inhibition (IC50) in series [1] and in series [2] was above 100 µM throughout. Besides, the logP in series [3] was -1.09 ± 0.02. For the same compound, the Serum stability result in series [4] is reported as “cleaved by proteases within an hour”. With `CSCC[C@H](NC(=O)[C@H](CC(C)C)NC(=O)[C@H](CC(=O)O)NC(=O)CNC(=O)[C@@H](N)CCCNC(=N)N)C(=O)N[C@@H](CCCCN)C(=O)N[C@@H](CC(C)C)C(=O)N[C@@H](C)C(=O)N[C@@H](CCCCNC(=O)c1ccc(F)cc1)C(N)=O` [ST1-59] (H-RGDLMKLAK(Benzoyl(4-F))-NH2), in series [1], the IC50 was above 100 µM.

Turning to “VGDLTYLKK-FAM-X (FAM label; C-term FAM-X, fluorescein dye/label) [Fluorescent labeled peptide]”, the “Binding to αvβ6-positive versus αvβ6-negative cells” value in series [5] is given as “increased binding to the αvβ6-positive cells than the αvβ6-negative cells”.

`CC(C)C[C@H](NC(=O)[C@H](CCC(=O)O)NC(=O)[C@H](CCCNC(=N)N)NC(=O)[C@H](CC(C)C)NC(=O)[C@H](CC(=O)O)NC(=O)CNC(=O)[C@@H](N)CCCNC(=N)N)C(=O)N[C@@H](C)C(=O)N[C@@H](CCCCNC(=O)c1ccc(F)cc1)C(N)=O` [ST1-61] (H-RGDLRELAK(Benzoyl(4-F))-NH2) registered a half-maximal inhibitory concentration (IC50) in series [1] above 100 µM. Consider `CN[C@H](C(=O)NCC(=O)N[C@@H](CC(=O)O)C(=O)N[C@@H](CC(C)C)C(=O)N[C@H](C(=O)N[C@@H](Cc1ccc(O)cc1)C(=O)N[C@@H](CC(C)C)C(=O)N[C@@H](CCCCN)C(=O)N[C@@H](CCCCNC(=O)c1ccc(F)cc1)C(N)=O)[C@@H](C)O)C(C)C`, for which the concentration for half-maximal inhibition (IC50) in series [6] was determined as 0.5 µM. As for `CC(C)C[C@H](NC(=O)[C@H](CC(=O)O)NC(=O)CNC(=O)[C@@H](N)CCCNC(=N)N)C(=O)N[C@@H](C)C(=O)N[C@@H](CC(=O)O)C(=O)N[C@@H](CC(C)C)C(=O)N[C@@H](CCCNC(=N)N)C(=O)N[C@@H](CCCCNC(=O)c1ccc(F)cc1)C(N)=O` [ST1-60] (H-RGDLADLRK(Benzoyl(4-F))-NH2), the IC50 in series [7] was 0.5 µM; in series [1] (competitive binding ELISA, read-out: IC50 αvβ4), above 100 µM.

For orientation: IC50 means the point on the concentration scale where inhibition reaches its midpoint. The term logP denotes a log measure of how a compound divides between an organic and an aqueous phase. Read a low logP as lower lipophilicity.
